# Patent US20130129675A1, “INTERFERON THERAPIES IN COMBINATION WITH BLOCKADE OF STAT3 ACTIVATION” (BOARD OF REGENTS, THE UNIVERSITY OF TEXAS SYSTEM, priority 2009, published 2013)
# Experiments:
# Format in all cases: cell-based, human
# [1] = tested on: STAT3 in HaCaT keratinocytes; assay: pSTAT3 level in HaCaT keratinocytes (MSD chemiluminescent detection); conditions: pre-incubated
# Description: Prior to experiments, the DMEM medium was changed to KGM-SFM containing rEGF and bovine pituitary extract for 12 hours, and the cells then exposed to various stimuli for 30 minutes. Cell lysates were extracted in IP lysis buffer were diluted in MSD extraction buffer and 25 uL of the cell lysate containing 10 ug protein was used in the analysis via chemiluminescent detection (MSD Technology). To test for inhibition by WP1220 (WP), cells were pre-incubated with WP1220 prior to the addition of IFN α.
# [2] = tested on: HH cells; assay: Caspase-3 and PARP cleavage in HH cells
# Description: (§1) To determine whether IFN alpha and beta were able to selectively phosphorylate STAT3 in other cell types. Studies were conducted in a range of other biologically relevant cell types. In these experiments, cells were grown in media supplemented with 10% FBS, and then serum starved for 18 hours and exposed to various stimuli for 30 minutes. […] (FIG. 10), and induced caspase-3 and PARP cleavage in these cells (Table E5)
# (§2) HH, HuT78 and MJ cells were treated with vehicle alone or WP1220 for 24 hours. Total caspase-3 and cleaved caspase-3 levels were measured in 15 ug lysates by a meso-Scale 2400 imager. Results represent means fold stimulations compared to the controls based on duplicate samples (+++++=15-25 fold; ++++=10-15 fold; +++=5-10 fold; =/−=less than 2 fold.
# [3] = tested on: STAT3 in HH, HuT78 and MJ CTCL lines; assay: STAT3 tyrosine 705 phosphorylation in CTCL lines
# Description: To determine whether IFN alpha and beta were able to selectively phosphorylate STAT3 in other cell types. Studies were conducted in a range of other biologically relevant cell types. In these experiments, cells were grown in media supplemented with 10% FBS, and then serum starved for 18 hours and exposed to various stimuli for 30 minutes.
# [4] = tested on: HuT78 Cells; assay: Caspase-3 and PARP cleavage in HuT78 cells
# Description: as §1, §2
# [5] = tested on: HuT78 and HH CTCL cell lines; assay: In vitro growth of CTCL cell lines
# [6] = tested on: MJ cells; assay: Caspase-3 induction in MJ cells; conditions: 10.0 uM, 24 hours
# Description: as §2
structure (smiles),measurement,setting,value
"C[C@H](NC(=O)/C(C#N)=C/C=C/c1cccc(Br)n1)c1ccccc1 [WP1220, (2E,4E)-5-(6-bromopyridin-2-yl)-2-cyano-N—((S)-1-phenylethyl)penta-2,4-dienamide]",pSTAT3 signal remaining after WP1220 pre-incubation,[1]; IFN α + WP 5 uM,"+++ (+++=2,000-4,000)"
same,pSTAT3 signal remaining after WP1220 pre-incubation,[1]; IFN α + WP 10 uM,"++ (++=2,000-1,500)"
same,pSTAT3 signal remaining after WP1220 pre-incubation,[1]; IFN α + WP 20 uM,"+ (+=less than 1,500)"
same,Cleaved Caspase,[2]; 5.0 uM,"++++ (++++=60,000-40,000)"
same,Cleaved PARP,[2]; 5.0 uM,"+++++ (+++++=10,000-7,000)"
same,Cleaved Caspase,[2]; 10.0 uM,"++++ (++++=60,000-40,000)"
same,Cleaved PARP,[2]; 10.0 uM,"+++ (+++=5,000-2000)"
same,induction of caspase-3 activity (fold stimulation compared to controls),"[2]; 10.0 uM, 24 hours",+++++ (+++++=15-25 fold)
same,relative level of activated pSTAT3,[3]; HH cells,time dependent decrease
same,constitutive and interferon stimulated phosphorylation of STAT3,"[3]; HH, HuT78, MJ cells (FIG. 8A, B)",specifically blocked
same,Cleaved Caspase,[4]; 5.0 uM,"++++ (++++=60,000-40,000)"
same,Cleaved PARP,[4]; 5.0 uM,"++++ (++++=7,000-5,000)"
same,Cleaved PARP,[4]; 10.0 uM,"+++ (+++=5,000-2000)"
same,induction of caspase-3 activity (fold stimulation compared to controls),"[4]; 10.0 uM, 24 hours",++++ (++++=10-15 fold)
same,in vitro growth,[5],potently inhibiting the in vitro growth
same,induction of caspase-3 activity (fold stimulation compared to controls),[6],+++ (+++=5-10 fold)
